Patent US20210285940A1, “Improved Fluorescent Resonance Energy Transfer-Based Biosensor Proteins And Their Methods of Use Thereof” (Pebble Labs Inc., priority 2018, published 2021)
Where “and” joins values, the source holds several entries; their conditions need not be identical. Equal entries are not always repeated.

Assays:
[1] = Control experiments for photo-bleaching; format: physicochemical; settings: three consecutive spectrum records, 20° C.
Method: For measurements associated with examination of ligand-induced response of TqLPNG biosensor fluorescence emission 0.1 mM BAI-2 stock solution was freshly prepared and contained 1 mM DPD and 4 mM boric acid in 50 mM HEPES buffer (pH 7.5) (Semmelhack et al., 2005). To test the biosensor fluorescence response for BAI-2 binding 400 μL samples having the same biosensor concentration (50 nM) and variable BAI-2 concentrations in 50 mM HEPES (pH 7.5)/0.4 mM boric acid/0.1 mM EDTA/0.15 M NaCl were prepared from the protein and the ligand stock solutions using analytical balances. Fluorescence emission spectra were taken following 3 min temperature equilibration of the sample within the temperature controlled cell holder (set for 20° C.).

[2] = Titration of TqLPNGh biosensor with BAI-2 monitored through acceptor-to-donor emission ratio; format: binding
Method: FIG. 13: Titration of TqLPNGh biosensor with autoinducer BAI-2 monitored through acceptor-to-donor emission ratio (A-to-D ratio). Measurements of TqLPNGh fluorescence emission spectra were performed in 50 mM HEPES (pH 7.5)/0.1 mM EDTA/0.4 mM boric acid//0.15 M NaCl buffer using 50 nM TqLPNGh. Emission spectra of TqLPNG were recorded by using 440 nm excitation. The values for the A-to-D ratio for the BIA-2 titration (the filled circles) were fitted to the phenomenological Hill equation to get BAI-2 concentration corresponding to the half decrease in A-to-D ratio (C50%). The values for A-to-D ratio corresponding to the control titration, i.e., titration of TqLPNGh with the ligand-free plain buffer, are shown as unfilled circles.
The values for D-to-A fluorescence ratio values BAI-2 concentration were plotted and then fitted with the phenomenological Hill equation or with the simple single site binding model. […] The presence of boric acid in the assay buffer (i.e., 50 mM HEPES (pH 7.5)/0.1 mM EDTA/0.15 M NaCl/0.4 mM boric acid) may be beneficial. Deficiency in boric acid may cause strong reduction in the apparent ligand affinity, yielding enhanced Kd-value and, therefore, a strong decrease in biosensor sensitivity.]
A Cary 300 spectrophotometer (Agilent/Varian Technologies) and FluoroMax fluorescence spectrophotometer (Horiba Scientific) equipped with Peltier-based temperature controlled cell holders were used for absorbance and fluorescence measurements, respectively. To characterize fluorescent proteins, all measurements (including TqLPNGh titration with BAI-2) were performed at 20° C. with proteins prepared in 50 mM HEPES buffer (pH 7.5)/0.1 mM EDTA, containing different NaCl concentrations. Fluorescence emission spectra were recorded in a 4 mm fluorescence cell by using 2 nm slit width at both excitation and emission monochromators. Typically, 50 nM protein concentrations were employed for fluorescence measurements. The protein stock solutions were prepared in 50 mM HEPES buffer (pH 7.5)/0.1 mM EDTA/0.3 M NaCl at 2 μM (for the TqLPNG) or 10 μM (for Tqh or NGh) concentration.

[3] = Prolonged storage of TqLPNG examined through size-exclusion chromatography; format: physicochemical
Method: FIG. 12: Accumulation of high order associates of TqLPNGh during its prolonged storage in the salt-free 50 mM HEPES (pH 7.5)/0.1 mM EDTA buffer at 4° C., examined through size-exclusion chromatography. The purified TqLPNG preparation (at ˜ 9 μM protein concentration) was stored at 4° C. in plain He buffer (containing 0.25 mM DTT and 0.25 mM TCEP) at 4° C. for about 3 weeks. 0.25 mL of the TqLPNGh solution was then mixed the equal volume of the appropriate buffer to get 0, 0.15 or 0.3 M NaCl final concentration. Following 1-2 hrs incubation (at 4° C.), the diluted protein was injected into Superdex 20010/300 column equlibrated with He, He+0.15 M NaCl or He+0.3 M NaCl buffer, respectively. The protein elution was detected through absorbance at 280 nm. The flow rate was 0.5 mL/min. The large overlapping peaks at 9-12 elution volume correspond to high order TqLPNG associates. Positions of peakes corresponding to TqLPNG dimer or monomer are marked with the arrows.
The reasonable question that follows deciphering the origin of the TqLPNG fluorescence emission response towards BAI-2 binding is to understand the optimal conditions for the biosensor-based determination of BAI-2 concentrations. Low NaCl conditions provide an increased change in acceptor-to-donor emission ratio for the BAI-2 binding favorable for accurate BAI-2 quantification. […] Thus, there should by a compromise between the binding amplitude of the observable signal (i.e., the decrease in the acceptor-to-donor emission ratio corresponding to fully saturated biosensor) and stability of the TqLPNG preparation (against the formation of high order associates).

[4] = TqLPNG fluorescence emission response towards BAI-2 binding at different NaCl concentrations; format: biochemical
Method: FIG. 8 (A-B): Response of the fluorescence emission spuctrum of TqLPNGh towards BAI-2 binding at different concentrations.of sodium chloride. Emission spectra (solid lines) were deconvoluted into the donor (dotted lines) and the acceptor (dashed lines) emission components, and the evaluation for the FRET efficiency (E values) was performed through enhancement in the acceptor emission referenced to the directly excited acceptor emission (the grey lines) as described under Materials and Methods. The spectra were recorded by using an excitation wavelength of 440 nm. Measurements were performed in a 50 mM HEPES (pH 7.5)/0.1 mM EDTA buffer (containing the specified amount of NaCl) with 50 nM TLPNGh.
FIG. 9: An example of fluorescence emission spectrum of TqLPNGh and its response to BAI-2 binding. (9A) Emisson spectra of 50 nM TqLPNGh in 50 mM HEPES (pH 7.5)/0.1 mM EDTA buffer in the absence (the grey line) and in the presence of 10 μM BAI-2 (the black line). The spectra were recorded by using a 440 nm excitation wavelength. (9B) Dependence of the BAI-2 binding TqLPNGh emission response (expressed as decrease in acceptor-to-donor emission ratio induced by BAI-2 binding) on concentration of NaCl.
TqLPNG fluorescence response towards BAI-2 binding was examined at different concentrations of NaCl (see FIG. 8). At any salt concentration, BAI-2 binding yielded an increase in the biosensor donor emission and the corresponding decrease in the acceptor emission, originated from the ligand-induced decrease in FRET between the donor and the acceptor chromophores. Indeed, for any salt concentration BAI-2 binding caused a decrease in FRET efficiency (follow the E-values in FIG. 8) and associated decrease in the acceptor-to-donor emission ratio. […] The observable BAI-2 binding amplitude was maximal at low salt buffer (−49%), strongly dropped at 0.15 M and became too small (for BAI-2 quantification applications) at 0.3 M and higher NaCl concentrations. […]
A Cary 300 spectrophotometer (Agilent/Varian Technologies) and FluoroMax fluorescence spectrophotometer (Horiba Scientific) equipped with Peltier-based temperature controlled cell holders were used for absorbance and fluorescence measurements, respectively. […] Fluorescence emission spectra were recorded in a 4 mm fluorescence cell by using 2 nm slit width at both excitation and emission monochromators. Typically, 50 nM protein concentrations were employed for fluorescence measurements. […]
FRET efficiency in TqLPNG was determined under variety of solution conditions by measurements of the emission spectra of TqLPNG (DA-species) alternatively excited at 440 nm and 505 nm. […]

EC50 ([2]; 50 nM TqLPNG, 50 mM HEPES (pH 7.5)/0.1 mM EDTA/0.15 M NaCl/0.4 mM boric acid, Hill equation fit, read-out: BAI-2 concentration corresponding to the half-transition (C50%) in emission response): 24 ± 1 nM | Kd ([2]; 50 nM TqLPNG, 50 mM HEPES (pH 7.5)/0.1 mM EDTA/0.15 M NaCl/0.4 mM boric acid, single site binding model, read-out: BAI-2•TqLPNG dissociation constant (Kd)): 9 nM and 10 nM and ~10 nM | magnitude of decrease of the acceptor-to-donor emission ratio on BAI-2 titration ([4]; 50 mM HEPES (pH 7.5)/0.4 mM boric acid/0.1 mM EDTA, 0.15 M NaCl): ~17% | observable BAI-2 binding amplitude ([4]; 0.3 M and higher NaCl): too small | decrease in the acceptor to donor emission ratio upon autoinducer-2 binding ([4]; adjustable fluorescence response, maximum): up to 48% | observable BAI-2 binding amplitude (decrease in acceptor-to-donor emission ratio, fully saturated) ([4]; low salt buffer): −49%
Substance: TqLPNG: tripartite FRET biosensor fusion mTurquoise2-(24-365)LuxP-mNeonGreen; TqLPNGh carries C-terminal His6 tag (SEQ ID NO. 2), SEQ ID NO. 3 lacks it
changes in the fluorescence spectrum (photo-bleaching control) [1]: no changes | higher sensitivity towards BAI-2 concentration as compared to mCLPY biosensor ([2]; from dissociation constants 10 nM versus 270 nM): more than 10 fold | stability against formation of high order associates ([3]; 0.3 M NaCl, prolonged storage at 4° C.): no formation of ‘inactive’ high-order associates | stability against formation of high order associates ([3]; HEPES (pH 7.5) buffer containing 0.15 M NaCl): good stability | stability against formation of high order associates ([3]; prolonged storage in low salt buffer, 4° C.): accumulation of high-order TqLPNG associates
